Columns and labels:
Format in all cases: in vivo
Echinochloa crus-galli [1] = assay: Pre-emergence herbicidal effect against ECHCG; conditions: 1280 g/ha, visual score after 3 weeks, 100% = plants have died, 0% = like control plants
Text: (§1) 1. Pre-emergence herbicidal effect and crop plant compatibility Seeds of monocotyledonous and dicotyledonous weed plants and crop plants are laid out in sandy loam soil in wood-fibre pots and covered with soil. The compounds of the invention, formulated in the form of wettable powders (WP) or as emulsion concentrates (EC), are then applied to the surface of the covering soil as aqueous suspension or emulsion at a water application rate equating to 600 to 800 L/ha with addition of 0.2% wetting agent. After the treatment, the pots are placed in a greenhouse and kept under good growth conditions for the trial plants. The damage to the test plants is scored visually after a test period of 3 weeks by comparison with untreated controls (herbicidal activity in percent (%): 100% activity=the plants have died, 0% activity=like control plants). [table]

Poa annua [2] = assay: Pre-emergence herbicidal effect against POAAN; conditions: 1280 g/ha, visual score after 3 weeks, 100% = plants have died, 0% = like control plants
Text: as §1

Setaria viridis [3] = assay: Pre-emergence herbicidal effect against SETVI; conditions: 1280 g/ha, visual score after 3 weeks, 100% = plants have died, 0% = like control plants
Text: as §1

[4] = tested on: Tripleurospermum inodorum; assay: Pre-emergence herbicidal effect against MATIN; conditions: 1280 g/ha, visual score after 3 weeks, 100% = plants have died, 0% = like control plants
Text: as §1

Stellaria media [5] = assay: Pre-emergence herbicidal effect against STEME; conditions: 1280 g/ha, visual score after 3 weeks, 100% = plants have died, 0% = like control plants
Text: as §1

Veronica persica [6] = assay: Pre-emergence herbicidal effect against VERPE; conditions: 1280 g/ha, visual score after 3 weeks, 100% = plants have died, 0% = like control plants
Text: as §1

Echinochloa crus-galli [7] = assay: Post-emergence herbicidal effect against ECHCG; conditions: 1280 g/ha, visual score after about 3 weeks, 100% = plants have died, 0% = like control plants
Method: (§2) [table] 2. Post-emergence herbicidal effect and crop plant compatibility Seeds of monocotyledonous and dicotyledonous weed and crop plants are laid out in sandy loam soil in wood-fibre pots, covered with soil and cultivated in a greenhouse under good growth conditions. 2 to 3 weeks after sowing, the test plants are treated at the one-leaf stage. The compounds of the invention, formulated in the form of wettable powders (WP) or as emulsion concentrates (EC), are then sprayed onto the green parts of the plants as aqueous suspension or emulsion at a water application rate equating to 600 to 800 l/ha with addition of 0.2% wetting agent. After the test plants have been left to stand in the greenhouse under optimal growth conditions for about 3 weeks, the action of the preparations is assessed visually in comparison to untreated controls (herbicidal action in percent (%): 100% activity=the plants have died, 0% activity=like control plants).

Abutylon threophrasti = assay: Post-emergence herbicidal effect against ABUTH; conditions: 1280 g/ha, visual assessment about 3 weeks after treatment, 100% = plants have died, 0% = like control plants
Method: as §2

Bassia scoparia = assay: Post-emergence herbicidal effect against KCHSC; conditions: 1280 g/ha, visual assessment about 3 weeks after treatment, 100% = plants have died, 0% = like control plants
Method: as §2

[8] = tested on: Tripleurospermum inodorum; assay: Post-emergence herbicidal effect against MATIN; conditions: 1280 g/ha, visual assessment about 3 weeks after treatment, 100% = plants have died, 0% = like control plants
Method: as §2

Veronica persica [9] = assay: Post-emergence herbicidal effect against VERPE; conditions: 1280 g/ha, visual assessment about 3 weeks after treatment, 100% = plants have died, 0% = like control plants
Method: as §2

Alopecurus myosuroides [10] = assay: Post-emergence herbicidal effect against ALOMY; conditions: 1280 g/ha, visual score after about 3 weeks, 100% = plants have died, 0% = like control plants
Method: as §2

Lolium rigidum = assay: Pre-emergence herbicidal effect against LOLRI; conditions: 1280 g/ha, visual score after 3 weeks, 100% = plants have died, 0% = like control plants
Text: as §1

Poa annua [11] = assay: Post-emergence herbicidal effect against POAAN; conditions: 1280 g/ha, visual assessment about 3 weeks after treatment, 100% = plants have died, 0% = like control plants
Method: as §2

Stellaria media [12] = assay: Post-emergence herbicidal effect against STEME; conditions: 1280 g/ha, visual assessment about 3 weeks after treatment, 100% = plants have died, 0% = like control plants
Method: as §2

Alopecurus myosuroides [13] = assay: Pre-emergence herbicidal effect against ALOMY; conditions: 1280 g/ha, visual score after 3 weeks, 100% = plants have died, 0% = like control plants
Text: as §1

Setaria viridis [14] = assay: Post-emergence herbicidal effect against SETVI; conditions: 1280 g/ha, visual assessment about 3 weeks after treatment, 100% = plants have died, 0% = like control plants
Method: as §2

Compound	Pre-emergence action against ECHCG (Echinochloa crus-galli [1]) [%]	Pre-emergence action against POAAN (Poa annua [2]) [%]	Pre-emergence action against SETVI (Setaria viridis [3]) [%]	Pre-emergence action against MATIN [4] [%]	Pre-emergence action against STEME (Stellaria media [5]) [%]	Pre-emergence action against VERPE (Veronica persica [6]) [%]	Post-emergence action against ECHCG (Echinochloa crus-galli [7]) [%]	Post-emergence action against ABUTH (Abutylon threophrasti) [%]	Post-emergence action against KCHSC (Bassia scoparia) [%]	Post-emergence action against MATIN [8] [%]	Post-emergence action against VERPE (Veronica persica [9]) [%]	Post-emergence action against ALOMY (Alopecurus myosuroides [10]) [%]	Pre-emergence action against LOLRI (Lolium rigidum) [%]	Post-emergence action against POAAN (Poa annua [11]) [%]	Post-emergence action against STEME (Stellaria media [12]) [%]	Pre-emergence action against ALOMY (Alopecurus myosuroides [13]) [%]	Post-emergence action against SETVI (Setaria viridis [14]) [%]
O=C(O)CSc1nn(-c2cccc(F)c2F)c(-c2cncnc2)c1Br [III-005]	90	100	90	90	90	90	90	90	90	90	90						
O=C(O)CSc1nn(-c2ccccc2F)c(-c2cnccn2)c1Br [VI-002]	90	100	90	90	90		90			90	90	90					
CCOC(=O)CNC(=O)CSc1nn(-c2ccccc2F)c(-c2ccc(F)c(F)c2)c1Br [VII-003]	100	100	100	100	100	100				90	90	100	100	100	90		
COC(=O)CNC(=O)CSc1nn(-c2ccccc2F)c(-c2ccc(F)c(F)c2)c1[N+](=O)[O-] [VII-004]		100			100												
COC(=O)CNC(=O)CSc1nn(-c2ccccc2F)c(-c2ccccc2)c1Br [VII-005]	90	100	90	100	100	100	90	100	100	100	100	100	90	100	90	90	100
COC(=O)CCNC(=O)CSc1nn(-c2ccccc2F)c(-c2cccnc2)c1Br [VII-006]	90	100	90	90	90	90			90	90	90	90		100		90	90
COC(=O)CN(C)C(=O)CSc1nn(-c2ccccc2F)c(-c2cccnc2)c1Br [VII-008]		90						90	90		90						
COC(=O)CN(C)C(=O)CSc1nn(-c2ccccc2F)c(-c2ccc(F)c(F)c2)c1Br [VII-011]		100		90		90			90		90	90				90	
